This is an account of results in patent US8334107B2, “Detection systems utilizing supported lipid bilayers” (priority 2005, dated 2012).

The test system of one assay is lipid bilayer. Kind of assay: Superquenching of fluorescent polymer coated lipid bilayer beads (general statement). It is filed as biochemical. The note with it: streptolysin O with cholesterol-containing lipids, mellitin with anionic lipids. An excerpt:
On the other hand, some test agents may only lead to gaps or smaller interruptions of the lipid bilayer, for example, as a result of insertion of a channel- or pore-forming proteins such as gramicidin and hemolysin. In either case, the result is either complete or partial superquenching of the fluorescent polymer. In general, non-porous beads are used for such quenching assays because the quenchable polymer is preferably coated onto the beads and is not impregnated into the beads.

In assay [1] the test system is cholesterol (10%, molar ratio) containing lipid membrane. Put plainly: Release of dye from porous particles coated with cholesterol containing lipid membrane by streptolysin-O. It is filed as biochemical. The following applies: low concentrations of streptolysin-O versus control without. How it is done:
FIGS. 22A-B illustrate one aspect of the invention—drug and/or dye release from the present lipid-coated particles. FIG. 22A is a graph showing release of dye from porous particles (containing dye inside) where the particles are coated with a cholesterol (10%, molar ratio) containing lipid membrane. As increasing amounts of streptolysin-O are added (solid square symbols represent lower concentration than solid ovals), more dye is released. […] FIG. 22B illustrates how streptolysin-O can disrupt cholesterol-containing lipid bilayer membranes, leading to release of materials (e.g., drugs or antibiotics) enclosed within the membrane. Streptolysin-O is an anti-microbial protein that preferably binds to cholesterol and can disrupt cholesterol-containing membranes.

Assay [2] deals with anionic phospholipids. The following applies: cited from earlier work.
Assay [3] concerns anionic phospholipids. Put plainly: Affinity of PLA2 for anionic phospholipids (Kim et al.). Type of assay: binding. An excerpt: From FIG. 18, the association constant (corresponding to the reciprocal of the point of half saturation) for nMLT and sMLT with DMPG were 5×10^6 M^−1 and 1.7×10^6 M^−1, respectively. […] Lower concentrations of nMLT, in comparison to sMLT, were required to disrupt the DMPG lipid bilayer. This might be attributed to the fact that nMLT contains some phospholipase A2 (PLA2) as a contaminant. PLA2 has a high affinity for anionic phospholipids, with an association constant of 0.5×10^10 M^−1 (Kim et al., Anal. Chem. 250, 109-116 (1997)), which is about 3000 fold higher than that of MLT. Although PLA2 activity requires calcium, which is not present in the experimental system, it has been reported that even upon addition of EDTA to natural MLT, PLA2 maintains its activity, probably due to formation of a tight complex with calcium with PLA2 (Dempsey, C. E. Biochim. Biophys. Acta 1990, 1031, 143-161).

For another assay, the system named is DMPG supported on MS-PPE. Put plainly: Binding curves of MLT to DMPG supported on MS-PPE (superquenching flow cytometric assay). The following applies: flow cytometry, 10 μM AQS. How it is done: FIGS. 18A-B show binding curves for MLT-disruption of supported lipid bilayer by natural MLT (nMLT; FIG. 18A), and synthetic MLT (sMLT; FIG. 18B). Fluorescence intensity was normalized to that without MLT as determined by flow cytometry. The error bars represent the standard deviation (SD) of the means of normalized histograms obtained for 3 replicates.
(§1) Bead suspensions of 2.5×10^5 DMPG-coated MS-PPE in 200 μL of PBS were analyzed using a FACScan flow cytometer (Becton-Dickinson, Sunnyvale, Calif.) with excitation at 488 nm. Fluorescence signals were acquired on FL-1 channel (525 nm) using log amplification and analyzed with the CellQuest software. Kinetic analysis of disruption of supported lipid bilayer by melittin was performed by acquiring real-time data with continuous mixing of samples (10^6 MS-PPE in 800 μl of PBS) using a magnetic stirrer. The raw data were analyzed using IDL Query software developed by Bruce Edwards (Cancer Center, University of New Mexico, Albuquerque, N. Mex.).
From FIG. 18, the association constant (corresponding to the reciprocal of the point of half saturation) for nMLT and sMLT with DMPG were 5×10^6 M^−1 and 1.7×10^6 M^−1, respectively. […] Lower concentrations of nMLT, in comparison to sMLT, were required to disrupt the DMPG lipid bilayer. This might be attributed to the fact that nMLT contains some phospholipase A2 (PLA2) as a contaminant. […]
For orientation: In flow cytometry, cells or beads pass a laser one at a time.

The test system of assay [4] is immobilized anionic DMPG membranes. The following applies: surface plasmon resonance; cited from earlier work. For orientation: SPR reads the build-up and loss of mass on a sensor chip optically.
Assay [5] relates to DMPG lipid bilayer on MS-PPE. Put plainly: Disruption of DMPG lipid bilayer on MS-PPE detected by superquenching with AQS, flow cytometry. It is filed as biochemical. The protocol: Lipid bilayers were disrupted by adding Triton X-100® detergent to the bead suspension to a final concentration of 0.25% (w/v).
Bead suspensions of 2.5×10^5 PPE-coated microspheres in 200 μL PBS were analyzed using a FACScan flow cytometer (Becton-Dickinson, Sunnyvale, Calif.) with excitation at 488 nm. Fluorescence signals were acquired on the FL-1 channel (525 nm) using log amplification and analyzed with the CellQuest software.
as §1
Because an anionic lipid was used to form a lipid bilayer around MS-PPE, it was expected that MLT will disrupt the DMPG lipid bilayer by such a detergent-like action. This was tested by adding 10 μM AQS to DMPG-coated MS-PPE followed by treatment with one of the following: Triton X-100® detergent, synthetic MLT (sMLT), or natural MLT (nMLT) and immediately reading the fluorescence by flow cytometry. […] These histograms resemble the ones reported previously for MS-PPE, without a lipid coating, in absence and in presence of AQS.
The kinetics of disruption of supported lipid bilayer by MLT were monitored by measuring real-time changes in fluorescence intensity by flow cytometry (FIG. 19). Suspensions of 10^6 DMPG-coated MS-PPE in 800 μL of PBS were treated with AQS at a final concentration of 10 μM, then with either sMLT, Triton X-100® detergent, or no treatment. […] Treatment with sMLT in the absence of AQS led to an increase in normalized fluorescence (FIG. 19, trace A). This can be attributed to disruption of the lipid bilayer by sMLT, and is consistent with a reversal of the slight quenching of fluorescence caused by the formation of a DMPG lipid bilayer over MS-PPE. Addition of AQS alone to DMPG-coated MS-PPE (FIG. 19, trace C) led to a 20% reduction in fluorescence as reported earlier. Addition of Triton X-100® detergent to DMPG-coated MS-PPE after the addition of AQS (first dip in trace E, FIG. 19) caused immediate decrease in fluorescence to ˜10% of its original value (second dip in trace E, FIG. 19). In contrast, addition of sMLT, after the addition of AQS, (FIG. 19, trace D) led to a gradual reduction of fluorescence intensity to ˜20% of the original value. Although MLT forms dimers at high concentrations (Dempsey, C. E. Biochim. Biophys. Acta 1990, 1031, 143-161), it is monomeric at the concentrations used in this study. On the other hand, Triton X-100® detergent forms micelles at the concentration used in this study.

A further assay concerns the target monomeric IgG. The note with it: cited from earlier work.

Consider “streptolysin-O: anti-microbial protein that preferably binds to cholesterol and can disrupt cholesterol-containing membranes”, for which, in the assay on lipid bilayer, the “effect on the lipid bilayer” value is given as “total disruption of the bilayer”. Also, the release of dye entry in assay [1] is “greater than observed for control”.
For the molecule “PLA2: lipolytic enzyme, contaminant of natural melittin”, the “effect on the lipid bilayer” value with lipid bilayer was “total disruption of the bilayer”. Besides, in the assay with anionic phospholipids [2], the association constant was 5e+09 M⁻¹. Besides, the “association constant relative to that of MLT” value in the assay on anionic phospholipids [3] is on record as “about 3000 fold”.
As to “sMLT: synthetic melittin obtained from Sigma”, the “association constant (reciprocal of the point of half saturation) with DMPG” value in the assay on DMPG supported on MS-PPE stood at 1.7e+06 M⁻¹. Also, the association constant in assay [4] is 2e+06 M⁻¹. In assay [5] (10 μM AQS, sMLT 3.8 μM, nMLT 1.6 μM), the “quenching of the MS-PPE after treatment” value is reported as “comparable to that occurring on addition of Triton X-100”. The “fluorescence intensity, of the original value” in assay [5] (real-time kinetics, added after 10 μM AQS (traces D, E)) is ~20%.

B1: FcγRIIb: low affinity IgG receptor, single polypeptide chain of 310 amino acids (protein, UniProt P31994 43-310, looked up)
Low affinity immunoglobulin …: TPAAPPKAVLKLEPQWINVLQEDSVTLTCRGTHSPESDSIQWFHNGNLIPTHTQPSYRFKANNNDSGEYTCQTGQTSLSDPVHLTVLSEWLVLQTPHLEFQEGETIVLRCHSWKDKPLVKVTFFQNGKSKKFSRSDPNFSIPQANHSHSGDYHCTGNIGYTLYSSKPVTITVQAPSSSPMGIIVAVVTGIAVAAIVAAVVALIYCRKKRISALPGYPECREMGETLPEKPANPTNPDEADKVGAENTITYSLLMHPDALEEPDDQNRI
For the molecule B1, the equilibrium dissociation constant (Kd) (usually the constant that tells how readily two partners part at equilibrium) at monomeric IgG was ~1000 nM.
